Results taken from ChEMBL document CHEMBL5370648, “Rational Design of Bioorthogonally Activatable PROTAC for Tumor-Targeted Protein Degradation” (J Med Chem, 2023).
Activity calls are given as the source filed them. No cut-off for these calls is given here.

Assays:
[1] = Retention time of the compound by HPLC method; assay type: physicochemical
T47D [2] = assay: Cytotoxicity against human T47D cells assessed as inhbition of cell growth measured after 48 hrs by CCK-8 method; assay type: functional, cell-based
MDA-MB-231 [3] = assay: Cytotoxicity against human MDA-MB-231 cells assessed as inhbition of cell growth measured after 48 hrs by CCK-8 method; assay type: functional, cell-based; details: MDA-MB-231, 48 h
MCF7 [4] = assay: Cytotoxicity against human MCF7 cells assessed as inhbition of cell growth measured after 48 hrs by CCK-8 method; assay type: functional, cell-based; details: MCF7, 48 h
T47D [5] = assay: Cytotoxicity against 12 hrs BODIPY-TZ treated human T47D cells assessed as inhbition of cell growth measured after 48 hrs by CCK-8 method; assay type: functional, cell-based
MDA-MB-231 [6] = assay: Cytotoxicity against 12 hrs BODIPY-TZ treated human MDA-MB-231 cells assessed as inhbition of cell growth measured after 48 hrs by CCK-8 method; assay type: functional, cell-based
MCF7 [7] = assay: Cytotoxicity against 12 hrs BODIPY-TZ treated human MCF7 cells assessed as inhbition of cell growth measured after 48 hrs by CCK-8 method; assay type: functional, cell-based
[8] = molecular target: T1, von Hippel-Lindau disease tumor suppressor/Bromodomain-containing protein 4 (Homo sapiens, UniProt O60885+P40337); assay: PROTAC activity at BRD4/VHL E3 ligase in human T47D cells assessed as decrease in BRD4 expression at upto 2.0 uM incubated for 48 hrs by Western blot analysis; assay type: cell-based
T1 sequence (P40337 whole entry, looked up, other chains not shown): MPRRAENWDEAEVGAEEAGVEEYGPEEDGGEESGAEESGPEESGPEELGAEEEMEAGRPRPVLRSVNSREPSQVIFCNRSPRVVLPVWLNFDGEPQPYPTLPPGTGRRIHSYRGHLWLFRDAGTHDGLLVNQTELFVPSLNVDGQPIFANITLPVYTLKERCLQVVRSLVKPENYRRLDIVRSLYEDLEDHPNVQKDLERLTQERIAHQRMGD

[9] = molecular target: T1, von Hippel-Lindau disease tumor suppressor/Bromodomain-containing protein 4; assay: PROTAC activity at BRD4/VHL E3 ligase in human MDA-MB-231 cells assessed as decrease in BRD4 expression at upto 2.0 uM incubated for 48 hrs by Western blot analysis; assay type: cell-based
[10] = molecular target: T1, von Hippel-Lindau disease tumor suppressor/Bromodomain-containing protein 4; assay: PROTAC activity at BRD4/VHL E3 ligase in 12 hrs BODIPY-TZ treated human T47D cells assessed as reduction in BRD4 expression at upto 2.0 uM incubated for 48 hrs by Western blot analysis; assay type: cell-based
[11] = molecular target: T1, von Hippel-Lindau disease tumor suppressor/Bromodomain-containing protein 4; assay: PROTAC activity at BRD4/VHL E3 ligase in 12 hrs BODIPY-TZ treated human MDA-MB-231 cells assessed as reduction in BRD4 expression at upto 2.0 uM incubated for 48 hrs by Western blot analysis; assay type: cell-based
[12] = molecular target: T1, von Hippel-Lindau disease tumor suppressor/Bromodomain-containing protein 4; assay: PROTAC activity at BRD4/VHL E3 ligase in 12 hrs BODIPY-TZ treated human MCF7 cells assessed as reduction in BRD4 expression at upto 2.0 uM incubated for 48 hrs by Western blot analysis; assay type: cell-based
[13] = molecular target: T2, von Hippel-Lindau disease tumor suppressor/Bromodomain-containing protein 3 (Homo sapiens) (UniProt Q15059+P40337); assay: PROTAC activity at BRD3/VHL E3 ligase in 12 hrs BODIPY-TZ treated human T47D cells assessed as reduction in BRD3 expression at upto 2.0 uM incubated for 48 hrs by Western blot analysis; assay type: cell-based
T2 sequence (P40337 whole entry partner): as the sequence (P40337 whole entry, looked up, other chains not shown) above
T2 sequence (Q15059 2-726 limits assumed): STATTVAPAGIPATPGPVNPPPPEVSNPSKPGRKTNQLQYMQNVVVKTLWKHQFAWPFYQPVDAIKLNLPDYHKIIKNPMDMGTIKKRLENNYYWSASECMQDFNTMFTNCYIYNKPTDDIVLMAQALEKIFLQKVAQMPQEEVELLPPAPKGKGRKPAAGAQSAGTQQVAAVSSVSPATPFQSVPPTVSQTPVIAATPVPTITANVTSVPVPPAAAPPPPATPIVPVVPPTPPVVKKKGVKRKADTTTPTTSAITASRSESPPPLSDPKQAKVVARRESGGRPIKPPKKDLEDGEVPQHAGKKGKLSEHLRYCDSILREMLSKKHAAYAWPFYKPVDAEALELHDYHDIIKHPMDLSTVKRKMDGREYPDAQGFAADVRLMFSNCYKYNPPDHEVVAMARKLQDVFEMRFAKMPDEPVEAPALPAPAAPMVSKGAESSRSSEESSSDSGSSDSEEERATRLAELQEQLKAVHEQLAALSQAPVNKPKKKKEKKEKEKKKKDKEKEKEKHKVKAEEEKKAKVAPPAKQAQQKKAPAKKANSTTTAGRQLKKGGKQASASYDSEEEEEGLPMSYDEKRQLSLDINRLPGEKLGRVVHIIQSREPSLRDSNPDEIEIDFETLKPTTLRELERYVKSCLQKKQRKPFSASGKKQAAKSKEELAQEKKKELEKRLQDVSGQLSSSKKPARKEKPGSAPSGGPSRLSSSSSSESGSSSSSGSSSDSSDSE

[14] = molecular target: T2, von Hippel-Lindau disease tumor suppressor/Bromodomain-containing protein 3 (Homo sapiens); assay: PROTAC activity at BRD3/VHL E3 ligase in 12 hrs BODIPY-TZ treated human MCF7 cells assessed as reduction in BRD3 expression at upto 2.0 uM incubated for 48 hrs by Western blot analysis; assay type: cell-based
[15] = molecular target: T1, von Hippel-Lindau disease tumor suppressor/Bromodomain-containing protein 4; assay: PROTAC activity at BRD4/VHL E3 ligase in human MCF7 cells assessed as induction of degradation of intracellular BRD4 at 200 nM incubated for 48 hrs by immunofluorescence staining assay; assay type: cell-based
[16] = molecular target: T1, von Hippel-Lindau disease tumor suppressor/Bromodomain-containing protein 4; assay: PROTAC activity at BRD4/VHL E3 ligase in 12 hrs BODIPY-TZ treated human T47D cells assessed as induction of degradation of BRD4 at upto 1000 nM incubated for 48 hrs in presence of MG132 by immunofluorescence staining assay; assay type: cell-based
[17] = molecular target: T1, von Hippel-Lindau disease tumor suppressor/Bromodomain-containing protein 4; assay: PROTAC activity at BRD4/VHL E3 ligase in 12 hrs BODIPY-TZ treated human T47D cells assessed as induction of degradation of BRD4 at upto 1000 nM incubated for 48 hrs in presence of MLN4924 by immunofluorescence staining assay; assay type: cell-based
[18] = molecular target: T1, von Hippel-Lindau disease tumor suppressor/Bromodomain-containing protein 4; assay: PROTAC activity at BRD4/VHL E3 ligase in 12 hrs BODIPY-TZ treated human T47D cells assessed as degradation of BRD4 expression incubated for 48 hrs by Western blot analysis; assay type: cell-based
[19] = molecular target: T1, von Hippel-Lindau disease tumor suppressor/Bromodomain-containing protein 4; assay: PROTAC activity at BRD4/VHL E3 ligase in 12 hrs BODIPY-TZ treated human MDA-MB-231 cells assessed as degradation of BRD4 expression incubated for 48 hrs by Western blot analysis; assay type: cell-based
[20] = molecular target: T1, von Hippel-Lindau disease tumor suppressor/Bromodomain-containing protein 4; assay: PROTAC activity at BRD4/VHL E3 ligase in 12 hrs BODIPY-TZ treated human MCF7 cells assessed as degradation of BRD4 expression incubated for 48 hrs by Western blot analysis; assay type: cell-based
[21] = molecular target: T1, von Hippel-Lindau disease tumor suppressor/Bromodomain-containing protein 4; assay: PROTAC activity at BRD4/VHL E3 ligase in 12 hrs BODIPY-TZ treated human T47D cells assessed as suppression of c-Myc expression incubated for 48 hrs by Western blot analysis; assay type: cell-based
[22] = molecular target: T1, von Hippel-Lindau disease tumor suppressor/Bromodomain-containing protein 4; assay: PROTAC activity at BRD4/VHL E3 ligase in 12 hrs BODIPY-TZ treated human MCF7 cells assessed as suppression of c-Myc expression incubated for 48 hrs by Western blot analysis; assay type: cell-based
[23] = molecular target: T1, von Hippel-Lindau disease tumor suppressor/Bromodomain-containing protein 4; assay: PROTAC activity at BRD4/VHL E3 ligase in 12 hrs BODIPY-TZ treated human T47D cells assessed as activation of caspase-3 expression incubated for 48 hrs by Western blot analysis; assay type: cell-based
[24] = molecular target: T1, von Hippel-Lindau disease tumor suppressor/Bromodomain-containing protein 4; assay: PROTAC activity at BRD4/VHL E3 ligase in 12 hrs BODIPY-TZ treated human MCF7 cells assessed as activation of caspase-3 expression incubated for 48 hrs by Western blot analysis; assay type: cell-based
MCF7 [25] = assay: Antitumor activity against IR808-TZ treated human MCF7 cells xenografted in BALB/c nude mouse assessed as tumor growth inhibition at 20 mg/kg measured after 16 days; assay type: functional, organism-based; details: time 16.0 day
MCF7 [26] = assay: Antitumor activity against IR808-TZ treated human MCF7 cells xenografted in BALB/c nude mouse assessed as fold increase in tumor volume at 20 mg/kg measured at day 23 post injection; assay type: functional; details: time 23 day
MCF7 [27] = assay: Antitumor activity against human MCF7 cells xenografted in BALB/c nude mouse assessed as fold increase in tumor volume at 20 mg/kg measured at day 23 post injection; assay type: functional; details: time 23 day
[28] = Toxicity in BALB/c nude mouse assessed as animal death at 10 mg/kg measured after 16 days in presence of IR808-TZ; assay type: organism-based; details: in vivo, 384 h, time 16 day
MCF7 [29] = assay: Antitumor activity against IR808-TZ treated human MCF7 cells xenografted in BALB/c nude mouse model assessed as inhibition of tumor cell proliferation by measuring reduction in Ki67 staining at 20 mg/kg administered for 16 days by immunohistochemical analysis; assay type: functional, organism-based; details: time 16.0 day
[30] = molecular target: T1, von Hippel-Lindau disease tumor suppressor/Bromodomain-containing protein 4; assay: In vivo PROTAC activity at BRD4/VHL E3 ligase in BALB/c nude mouse xenografted with human MCF7 cells assessed as reduction in BRD4 protein level in tumor 10 mg/kg measured after 48 hrs in presence of IR808-TZ by Western blot analysis; assay type: functional, organism-based
MCF7 [31] = assay: Antitumor activity against human MCF7 cells xenografted in BALB/c nude mouse assessed as apoptosis at 20 mg/kg measured after 48 hrs by Western blot analysis; assay type: functional, organism-based
MCF7 [32] = assay: Antitumor activity against human MCF7 cells xenografted in BALB/c nude mouse assessed as apoptosis at 20 mg/kg measured after 48 hrs in presence of IR808-TZ by Western blot analysis; assay type: functional, organism-based

## CC1=CC(C)=[N+]2C1=C(c1cccc(-c3nnc(C)nn3)c1)c1c(C)cc(C)n1[B-]2(F)F
[1]
  Retention_time: 19.92 min
T47D [2]
  IC50: 1760 nM
MDA-MB-231 [3]
  IC50: 652 nM
MCF7 [4]
  IC50: 1320 nM
T47D [5]
  IC50: 407 nM
MDA-MB-231 [6]
  IC50: 326 nM
MCF7 [7]
  IC50: 264 nM
[8]
  Activity: inactive
[9]
  Activity: inactive
[10]
  Activity: Active
[11]
  Activity: Active
[12]
  Activity: Active
[13]
  Activity: Active
[14]
  Activity: Active
[15]
  Activity: inactive
[16]
  Activity: inactive
[17]
  Activity: inactive
[18]
  Activity: Active
[19]
  Activity: Active
[20]
  Activity: Active
[21]
  Activity: Active
[22]
  Activity: Active
[23]
  Activity: Active
[24]
  Activity: Active
MCF7 [25]
  Activity: Active
MCF7 [26]
  fold change (FC): 1.74
MCF7 [27]
  fold change (FC): 5.98
[28]
  Activity: Toxic
MCF7 [29]
  Activity: Active
[30]
  Activity: Active
MCF7 [31]
  Activity: inactive
MCF7 [32]
  Activity: Active
